Test results: ChEMBL document CHEMBL1153448, “Diether derivatives of homo- or substituted piperidines as non-imidazole histamine H3 receptor ligands” (Bioorg Med Chem, 2009)

molecular target: Histamine H3 receptor (Homo sapiens, UniProt Q9Y5N1); experiment: Displacement of [125I]Iodoproxyfran from human histamine H3 receptor expressed in HEK293 cells; format: cell-based
Sequence (Q9Y5N1 whole entry): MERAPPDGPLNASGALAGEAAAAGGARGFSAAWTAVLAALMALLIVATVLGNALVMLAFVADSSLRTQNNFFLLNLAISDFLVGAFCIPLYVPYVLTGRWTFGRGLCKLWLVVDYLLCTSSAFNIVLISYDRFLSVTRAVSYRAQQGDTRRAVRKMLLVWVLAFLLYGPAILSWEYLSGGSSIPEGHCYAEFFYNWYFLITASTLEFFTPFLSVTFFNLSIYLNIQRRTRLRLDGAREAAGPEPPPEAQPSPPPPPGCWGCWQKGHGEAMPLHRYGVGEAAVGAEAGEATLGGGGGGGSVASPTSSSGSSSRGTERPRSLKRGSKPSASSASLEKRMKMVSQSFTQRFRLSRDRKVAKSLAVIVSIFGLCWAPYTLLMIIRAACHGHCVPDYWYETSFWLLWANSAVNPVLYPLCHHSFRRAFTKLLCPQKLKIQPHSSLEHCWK

Compound	Ki [nM]
CC1CCCN(CCCOCCOc2ccc(C(C)(C)C)cc2)C1 (stereo not drawn)	62
CC1CCN(CCCOCCCOc2ccc(C(C)(C)C)cc2)CC1	51
COc1cccc(OCCCOCCCN2CCC(C)CC2)c1	49
COc1cccc(OCCOCCCN2CCCC(C)C2)c1 (stereo not drawn)	14.8
COc1cccc(OCCOCCCN2CCCCCC2)c1	7.2
CC(C)(C)c1ccc(OCCCOCCCN2CCCCCC2)cc1	7.7
CC1CCN(CCCOCCCOc2ccc(Cl)cc2)CC1	27.9
COc1cccc(OCCCOCCCN2CCCCCC2)c1	18.6
COc1cccc(OCCOCCCN2CCC(C)CC2)c1	12.5
CC1CCCN(CCCOCCCOc2ccc(Cl)cc2)C1 (stereo not drawn)	3.2
CC1CCCN(CCCOCCCOc2ccc(C(C)(C)C)cc2)C1 (stereo not drawn)	12.8
COc1cccc(OCCCOCCCN2CCCC(C)C2)c1 (stereo not drawn)	27.3

molecular target: Histamine H3 receptor (Rattus norvegicus, UniProt Q9QYN8); experiment: Binding affinity to histamine H3 receptor in rat cerebral cortex; format: tissue-based
Sequence (Q9QYN8 whole entry): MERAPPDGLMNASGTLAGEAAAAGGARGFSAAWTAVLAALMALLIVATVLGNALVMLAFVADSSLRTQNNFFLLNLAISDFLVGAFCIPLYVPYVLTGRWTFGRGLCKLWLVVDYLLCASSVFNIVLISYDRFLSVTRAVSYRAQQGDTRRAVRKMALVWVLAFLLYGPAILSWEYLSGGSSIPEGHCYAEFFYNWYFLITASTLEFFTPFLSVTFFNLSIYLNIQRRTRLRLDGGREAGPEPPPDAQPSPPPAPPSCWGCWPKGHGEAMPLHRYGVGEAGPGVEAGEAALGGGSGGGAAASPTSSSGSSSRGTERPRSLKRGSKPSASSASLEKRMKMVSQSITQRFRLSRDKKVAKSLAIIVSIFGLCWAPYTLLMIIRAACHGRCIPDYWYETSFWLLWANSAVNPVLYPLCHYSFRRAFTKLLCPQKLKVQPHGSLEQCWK

Compound	Ki [nM]
Clc1ccc(CCCOCCCN2CCCCC2)cc1 [PITOLISANT]	17
